Test results as given in patent publication US4731451A, “N-((2-oxo-3(2H)benzothiazolyl)methyl)-2-chloroacetanilides” (Monsanto Company, priority 1980, dated 1988).

What was measured:
Type in all cases: in vivo
Cocklebur [1] = test: Pre-emergent herbicidal activity (Table II); conditions: 2-3 weeks
Procedure, shortened: (§1)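 Pre-emergence soil incorporation: compound (solvent or wettable powder suspension) mixed into cover soil over seeds/propagules; greenhouse, subirrigation; percent injury scored on fixed scale at ~2-3 wk after seeding.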

Canada Thistle = test: Pre-emergent herbicidal activity (Table II); conditions: 2-3 weeks
Procedure, shortened: as §1

Smartweed [2] = test: Pre-emergent herbicidal activity (Table II); conditions: 2-3 weeks
Procedure, shortened: as §1

Yellow Nutsedge = test: Pre-emergent herbicidal activity (Table II); conditions: 2-3 weeks
Procedure, shortened: as §1

Quackgrass = test: Pre-emergent herbicidal activity (Table II); conditions: 2-3 weeks
Procedure, shortened: as §1

Velvetleaf [3] = test: Pre-emergent herbicidal activity (Table II); conditions: 2-3 weeks
Procedure, shortened: as §1

Downy Brome [4] = test: Pre-emergent herbicidal activity (Table II); conditions: 2-3 weeks
Procedure, shortened: as §1

Morningglory [5] = test: Pre-emergent herbicidal activity (Table II); conditions: 2-3 weeks
Procedure, shortened: as §1

Johnsongrass = test: Pre-emergent herbicidal activity (Table II); conditions: 2-3 weeks
Procedure, shortened: as §1

Lambsquarters [6] = test: Pre-emergent herbicidal activity (Table II); conditions: 2-3 weeks
Procedure, shortened: as §1

Barnyardgrass [7] = test: Pre-emergent herbicidal activity (Table II); conditions: 2-3 weeks
Procedure, shortened: as §1

Wheat = test: Pre-emergent herbicidal activity (Table III)
Method: (§2) The pre-emergence tests are conducted as follows:
(§3) A good grade of top soil is placed in aluminum pans and compacted to a depth of three-eighths to one-half inch from the top of the pan. On the top of the soil is placed a predetermined number of seeds or vegetative propagules of various plant species. The soil required to level fill the pans after seeding or adding vegetative propagules is weighed into a pan. A known amount of the active ingredient applied in a solvent or as a wettable powder suspension and the soil are thoroughly mixed, and used as a cover layer for prepared pans. After treatment, the pans are moved into a greenhouse bench where they are watered from below as needed to give adequate moisture for germination and growth.
(§4) Approximately 2-3 weeks after seeding and treating, the plants are observed and the results recorded. The herbicidal rating is obtained by means of fixed scale based on the percent injury of each plant species. The ratings are defined as follows: […]
(§5) The compounds were further tested by utilizing the above procedure on the following plant species: […]

Sorghum = test: Pre-emergent herbicidal activity (Table III)
Method: as §2, §3, §4, §5

Cocklebur [8] = test: Pre-emergent herbicidal activity (Table III)
Method: as §2, §3, §4, §5

Sugarbeet = test: Pre-emergent herbicidal activity (Table III)
Method: as §2, §3, §4, §5

Smartweed [9] = test: Pre-emergent herbicidal activity (Table III)
Method: as §2, §3, §4, §5

Soybean = test: Pre-emergent herbicidal activity (Table III)
Method: as §2, §3, §4, §5

Velvetleaf [10] = test: Pre-emergent herbicidal activity (Table III)
Method: as §2, §3, §4, §5

Panicum = test: Pre-emergent herbicidal activity (Table III)
Method: as §2, §3, §4, §5

Hemp Sesbania = test: Pre-emergent herbicidal activity (Table III)
Method: as §2, §3, §4, §5

Downy Brome [11] = test: Pre-emergent herbicidal activity (Table III)
Method: as §2, §3, §4, §5

Morningglory [12] = test: Pre-emergent herbicidal activity (Table III)
Method: as §2, §3, §4, §5

Wild Buckwheat = test: Pre-emergent herbicidal activity (Table III)
Method: as §2, §3, §4, §5

Rice = test: Pre-emergent herbicidal activity (Table III)
Method: as §2, §3, §4, §5

Lambsquarters [13] = test: Pre-emergent herbicidal activity (Table III)
Method: as §2, §3, §4, §5

Barnyardgrass [14] = test: Pre-emergent herbicidal activity (Table III)
Method: as §2, §3, §4, §5

Crabgrass = test: Pre-emergent herbicidal activity (Table III)
Method: as §2, §3, §4, §5
Also: ranges in brackets are in %.

For `CC1=C(N(Cn2c(=O)sc3ccccc32)C(=O)CCl)C(C)CCC1` (stereo not shown) [Example 9, N--[(2-oxo-3(2H)--benzothiazolyl)methyl]-N--(2,6-dimethyl-1-cyclohexen-1-yl)-2-chloroamide], the Herbicidal rating (Cocklebur [1]; 5.6 kg/ha) was 0 (0-24), the Herbicidal rating (Cocklebur [1]; 11.2 kg/ha) was 0 (0-24) and the Herbicidal rating (Canada Thistle; 5.6 kg/ha) was 0 (0-24). The Herbicidal rating (Canada Thistle; 11.2 kg/ha) was 0 (0-24), the Herbicidal rating (Smartweed [2]; 5.6 kg/ha) was 0 (0-24) and the Herbicidal rating (Smartweed [2]; 11.2 kg/ha) was 3 (75-100). For the same molecule, the Herbicidal rating (Yellow Nutsedge; 5.6 kg/ha) was 0 (0-24), the Herbicidal rating (Yellow Nutsedge; 11.2 kg/ha) was 0 (0-24) and the Herbicidal rating (Quackgrass; 5.6 kg/ha) was 0 (0-24). For the same molecule, the Herbicidal rating (Quackgrass; 11.2 kg/ha) was 1 (25-49), the Herbicidal rating (Velvetleaf [3]; 5.6 kg/ha) was 0 (0-24) and the Herbicidal rating (Velvetleaf [3]; 11.2 kg/ha) was 0 (0-24). For the same molecule, the Herbicidal rating (Downy Brome [4]; 5.6 kg/ha) was 0 (0-24), the Herbicidal rating (Downy Brome [4]; 11.2 kg/ha) was 2 (50-74) and the Herbicidal rating (Morningglory [5]; 5.6 kg/ha) was 0 (0-24). For the same molecule, the Herbicidal rating (Morningglory [5]; 11.2 kg/ha) was 0 (0-24), the Herbicidal rating (Johnsongrass; 5.6 kg/ha) was 0 (0-24) and the Herbicidal rating (Johnsongrass; 11.2 kg/ha) was 0 (0-24). For the same molecule, the Herbicidal rating (Lambsquarters [6]; 5.6 kg/ha) was 1 (25-49), the Herbicidal rating (Lambsquarters [6]; 11.2 kg/ha) was 1 (25-49) and the Herbicidal rating (Barnyardgrass [7]; 5.6 kg/ha) was 3 (75-100). The Herbicidal rating (Barnyardgrass [7]; 11.2 kg/ha) was 3 (75-100), the Herbicidal rating (Wheat; 0.26 kg/ha) was 0 (0-24) and the Herbicidal rating (Wheat; 1.12 kg/ha) was 0 (0-24). The Herbicidal rating (Wheat; 5.6 kg/ha) was 2 (50-74), the Herbicidal rating (Sorghum; 0.26 kg/ha) was 0 (0-24) and the Herbicidal rating (Sorghum; 1.12 kg/ha) was 0 (0-24). The Herbicidal rating (Sorghum; 5.6 kg/ha) was 2 (50-74), the Herbicidal rating (Cocklebur [8]; 0.26 kg/ha) was 0 (0-24) and the Herbicidal rating (Cocklebur [8]; 1.12 kg/ha) was 0 (0-24). The Herbicidal rating (Sugarbeet; 0.26 kg/ha) was 0 (0-24), the Herbicidal rating (Sugarbeet; 1.12 kg/ha) was 0 (0-24) and the Herbicidal rating (Sugarbeet; 5.6 kg/ha) was 1 (25-49). For the same molecule, the Herbicidal rating (Smartweed [9]; 0.26 kg/ha) was 0 (0-24), the Herbicidal rating (Smartweed [9]; 1.12 kg/ha) was 0 (0-24) and the Herbicidal rating (Smartweed [9]; 5.6 kg/ha) was 1 (25-49). For the same molecule, the Herbicidal rating (Soybean; 0.26 kg/ha) was 0 (0-24), the Herbicidal rating (Soybean; 1.12 kg/ha) was 0 (0-24) and the Herbicidal rating (Soybean; 5.6 kg/ha) was 0 (0-24). For the same molecule, the Herbicidal rating (Velvetleaf [10]; 0.26 kg/ha) was 0 (0-24), the Herbicidal rating (Velvetleaf [10]; 1.12 kg/ha) was 0 (0-24) and the Herbicidal rating (Velvetleaf [10]; 5.6 kg/ha) was 0 (0-24). The Herbicidal rating (Panicum; 0.26 kg/ha) was 0 (0-24), the Herbicidal rating (Panicum; 1.12 kg/ha) was 0 (0-24) and the Herbicidal rating (Panicum; 5.6 kg/ha) was 3 (75-100). For the same molecule, the Herbicidal rating (Hemp Sesbania; 1.12 kg/ha) was 0 (0-24), the Herbicidal rating (Hemp Sesbania; 5.6 kg/ha) was 0 (0-24) and the Herbicidal rating (Downy Brome [11]; 0.26 kg/ha) was 0 (0-24). The Herbicidal rating (Downy Brome [11]; 1.12 kg/ha) was 0 (0-24), the Herbicidal rating (Downy Brome [11]; 5.6 kg/ha) was 2 (50-74) and the Herbicidal rating (Morningglory [12]; 1.12 kg/ha) was 0 (0-24). The Herbicidal rating (Morningglory [12]; 5.6 kg/ha) was 0 (0-24), the Herbicidal rating (Wild Buckwheat; 0.26 kg/ha) was 0 (0-24) and the Herbicidal rating (Wild Buckwheat; 1.12 kg/ha) was 0 (0-24). For the same molecule, the Herbicidal rating (Wild Buckwheat; 5.6 kg/ha) was 0 (0-24), the Herbicidal rating (Rice; 0.26 kg/ha) was 0 (0-24) and the Herbicidal rating (Rice; 1.12 kg/ha) was 2 (50-74). For the same molecule, the Herbicidal rating (Rice; 5.6 kg/ha) was 2 (50-74), the Herbicidal rating (Lambsquarters [13]; 0.26 kg/ha) was 0 (0-24) and the Herbicidal rating (Lambsquarters [13]; 1.12 kg/ha) was 0 (0-24). The Herbicidal rating (Lambsquarters [13]; 5.6 kg/ha) was 1 (25-49), the Herbicidal rating (Barnyardgrass [14]; 0.26 kg/ha) was 2 (50-74) and the Herbicidal rating (Barnyardgrass [14]; 1.12 kg/ha) was 3 (75-100). For the same molecule, the Herbicidal rating (Barnyardgrass [14]; 5.6 kg/ha) was 3 (75-100), the Herbicidal rating (Crabgrass; 0.26 kg/ha) was 1 (25-49) and the Herbicidal rating (Crabgrass; 1.12 kg/ha) was 2 (50-74). The Herbicidal rating (Crabgrass; 5.6 kg/ha) was 3 (75-100).
